Measurements reported in article PMC6593224, “Validation and Invalidation of Chemical Probes for the Human N-myristoyltransferases” (Cell Chemical Biology, 2019).
Entries after “also recorded” stand apart in the source; their conditions may differ. Where two headings read alike, the source gives them in different places.

Key:
[1] = target: T1, recombinant human N-myristoyltransferase 1 (rNMT1) (Homo sapiens, UniProt P30419); assay: Enzymatic HsNMT1 assay (CPM detection of CoA thiol by-product); assay type: biochemical; conditions: for rNMT1 activity: below 300 μM
T1 construct: Full-length HsNMT1 enzyme was produced as previously described; made in house
T1 sequence (P30419 1-496): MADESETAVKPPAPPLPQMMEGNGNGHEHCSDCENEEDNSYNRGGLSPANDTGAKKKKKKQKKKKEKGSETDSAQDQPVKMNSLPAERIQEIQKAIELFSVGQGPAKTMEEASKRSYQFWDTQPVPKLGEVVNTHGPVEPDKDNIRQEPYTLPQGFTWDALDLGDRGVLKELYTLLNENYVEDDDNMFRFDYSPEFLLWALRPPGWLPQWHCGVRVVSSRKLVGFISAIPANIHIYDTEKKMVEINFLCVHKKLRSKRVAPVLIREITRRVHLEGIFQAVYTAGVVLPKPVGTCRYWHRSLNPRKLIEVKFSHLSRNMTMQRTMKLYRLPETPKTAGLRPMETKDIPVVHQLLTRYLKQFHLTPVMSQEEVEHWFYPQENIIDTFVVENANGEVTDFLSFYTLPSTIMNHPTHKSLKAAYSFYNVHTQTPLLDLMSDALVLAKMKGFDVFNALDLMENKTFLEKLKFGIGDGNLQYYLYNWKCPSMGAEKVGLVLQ
Protocol: After background correction, IC50 values were determined by fitting the four-parametric variable slope function (GraphPad Prism 5.0), with the stated IC50 values being the mean of two independent assays performed in triplicate.

[2] = Precipitation in rNMT1 buffer, absorbance at 750 nm; assay type: physicochemical; conditions: 15 min at room temperature
Protocol: Absorbance at 750 nm was determined after 15 min at room temperature.
and 72 h. Mean of quadruplicate measurements, ± SEM.
(E) Nuclei counts of HeLa cells after exposure to 1-5 for 24, 48 and 72 h. Mean of quadruplicate

MDA-MB-231 cells = assay: Nuclei counting as a measure for proliferation; assay type: cell-based, human
Protocol: After 24, 48 or 72 h of exposure, cell viability was evaluated by determination of metabolic activity and counting of cellular nuclei. Metabolic activity was assessed by addition of Cell Titer Blue (Promega), incubation at 37°C and the appropriate percentage of CO2 for 3 h, followed by measuring the absorbance at 490 nm using a PHERAstar (BMG LabTech, Germany). For nuclei counting, cells were fixed with 4% (w/v) paraformaldehyde at room temperature (RT) for 20 min, permeabilised with 0.2% (v/v) Triton X-100 in PBS at RT for 20 min, DNA stained with 1 μg/mL DAPI (Life Technologies, D1306) at RT for 1 h, followed by three washes with PBS. Whole well images for the total number of cells were acquired with an Acumen Cellista (TTP Labtech), using the 405 nm excitation / FL1 (420-500 nm) emission channel. The cell viability was normalised to the negative control (DMSO) and positive control (Staurosporin and puromycin), followed by fitting the four-parametric variable slope function (GraphPad Prism 5.0) to data of quadruplicate experiments.

[3] = system: N-myristoylated proteome (NMT substrates); assay: Quantitative chemical proteomics of YnMyr-tagged proteins; assay type: cell-based, human; conditions: MDA-MB-231 (n = 75)
From the text: HeLa and MDA-MB-231 cells were exposed (in triplicate) to 1–5, in a setup identical to that used for in-gel analyses (Figure 2A), with the exception that YnMyr-tagged proteins were ligated to AzRB. Labeled proteins were enriched on NeutrAvidin-agarose and digested on-resin with trypsin; peptides were labeled with tandem mass tag, and analyzed and quantified by nano-liquid chromatography-tandem mass spectrometry on a Thermo Q-Exactive instrument.
Cysteine carbamidomethylation was used as a fixed modification and methionine oxidation and N-terminal acetylation as variable modifications. ‘Trypsin/P’ was chosen as digestion mode enzyme, and up to two missed cleavages were allowed. The ‘match between run’ option was selected, along with ‘unique and razor peptides’ for protein quantification. TMT was set per sample group. […] The false discovery rate was set to 0.01 for peptides and a minimum of 2 unique peptides per protein were required. The mass spectrometry proteomics data have been deposited to the ProteomeXchange Consortium via the PRIDE partner repository with the dataset identifier PXD012722.

human NMTs = conditions: read-out: In Vitro IC50, Reported, cited from earlier work
both NMTs = target: both NMTs; set-up: method as in Mousnier et al., 2018; conditions: ref Mousnier et al., 2018; cited from earlier work
[4] = system: N-myristoylation in living cells; conditions: cited from earlier work
[5] = system: NMT within living cells (N-myristoylation); assay: YnMyr metabolic tagging, in-gel fluorescence; conditions: for N-myristoylation in cells (summary of assays): 1 μM IMP-366, 100 nM IMP-1088, 100 μM 2-hydroxymyristic acid, 30 μM D-NMAPPD, 10 μM Tris-DBA palladium, 18 h; for quantification of YnMyr tagging of ten bands: MDA-MB-231 and HeLa, 100 μM 3, 30 μM 4, 10 μM 5
[6] = system: NMT (in-cell target engagement, ARL1); assay: Sortase A assay (peptide addition to ARL1), human cell lines
Protocol: (§1) The homogenate was further disrupted by shearing it three times through a 30G needle. […] Hereafter the reaction was quenched with 5 mM EDTA and stored at −20°C until further analysis.

[7] = Precipitation in growth media
[8] = system: NMT (in-cell target engagement, ARL1); assay: Sortase A assay (peptide addition to ARL1), murine cells; assay type: cell-based; conditions: MEF and NIH3T3 cells; 100, 10 and 1 μM 4
Protocol: as §1

[9] = system: de novo protein synthesis; assay: L-AHA tagging of de novo protein synthesis; assay type: cell-based, human; conditions: MDA-MB-231 and HeLa; 18 h; 30 μM 4, 10 μM 5
From the text: Cells were subsequently harvested as described before (see Myristic Acid Analogue (YnMyr) Tagging Experiments).

[10] = system: MDA-MB-231 and HeLa cells; assay: Bright-field microscopy; assay type: cell-based, human; conditions: both cell lines; 18 h; 30 μM 4, 10 μM 5
human NMT1 = conditions: cited from earlier work
[11] = system: lysosomal acid ceramidase; set-up: method as in Raisova et al., 2002; conditions: various cancer cell lines, >5 μM 4; ref Raisova et al., 2002; cited from earlier work
HeLa cells [12] = assay: Apoptosis, active caspase-3 staining by FACS; conditions: 18 h, 30 μM 4, 10 μM 5
HeLa cells [13] = assay: Cell-cycle distribution by FACS (DNA content, EdU); conditions: 18 h, 30 μM 4, 10 μM 5
A375 melanoma = system: A375 melanoma; set-up: method as in Bhandarkar et al., 2008; conditions: 11 μM 5, ref Bhandarkar et al., 2008; cited from earlier work
NMT2 = conditions: ref Rampoldi et al., 2012; cited from earlier work
Jurkat cells = assay: Metabolic activity (Cell Titer Blue); conditions: Jurkat (suspension); 10 μM 5 for 72 h
[14] = range of concentrations, 24, 48, 72 h
[15] = recombinant human NMT1, mean of two independent assays in triplicate, values for 3 and 4 extrapolated, read-out: In Vitro IC50, This Article

SMILES | concentration at which the compound precipitated (absorbance at 750 nm) [2] | effect on proliferation (nuclei counts) (MDA-MB-231 cells; [14]) | hierarchical one-minus Pearson correlation clustering of enrichment of N-myristoylated proteins [3] | N-myristoylation in cells (summary of assays) [5] | rNMT1 activity [1] | IC50 [1, 15] [µM] | quantification of YnMyr tagging of ten bands [5] | decrease in L-AHA labeling [9] | cell morphology [10] | induction of apoptosis compared with MDA-MB-231 (HeLa cells [12]) | depletion of S phase compared with MDA-MB-231 (HeLa cells [13]) | other results
Cc1nn(C)c(C)c1CCOc1c(-c2ccc3c(c2)c(CN(C)C)nn3C)ccc(F)c1F [Compound 2, IMP-1088] | above 300 μM | only after 48 and 72 h | very similar to that of control cells not treated with YnMyr | complete inhibition | – | – | – | – | – | – | – | IC50 [1]: 0.00024 µM; IC50 (human NMTs; ref Mousnier et al., 2018): < 0.001 µM; Kd (both NMTs): ~0.0002 µM; N-myristoylation in cells ([4]; low nanomolar concentrations, ref Mousnier et al., 2018): completely inhibited; N-myristoylation in cells (summary of assays) ([5]; listed as IMP-1088): complete and specific inhibition; concentration for complete inhibition of in-cell N-myristoylation above the IC50 toward recombinant NMT1 ([5]; approximately): 30- to 100 fold; NMT engagement (sortase A) ([6]; all cell lines tested (panel of nine, incl. murine MEF and NIH3T3)): engaged NMT
CCCCCCCCCCCCC(O)C(=O)O (centres unmarked) [Compound 3, 2-hydroxymyristic acid] | 300 µM | unaffected | do not affect NMT activity | did not inhibit | not reduced | > 300 | at most a minor reduction | – | – | – | – | inhibition of recombinant NMT1 ([1]; 100 μM 3, while soluble): did not inhibit; IC50 (human NMTs; ref Paige et al., 1990): 100 µM; metabolic labeling of cells with [3H]myristate ([4]; 100 μM to 1 mM, ref Vaandrager et al., 1996, Tan et al., 2016): reduce metabolic labeling; effect of addition to medium ([7]; 3 at 1 mM, directly or in a mixture with BSA, data not shown): precipitation in the medium and cell death; N-myristoylation in cells (summary of assays) ([5]; listed as 2-Hydroxymyristate): inactive; N-myristoylation in cells (summary of assays) ([5]; listed as 2-hydroxymyristic acid): unaffected; NMT inhibition (sortase A) ([6]; Jurkat, HEK293 and NCI-H23 cells, 100, 10 and 1 μM 3): did not inhibit NMT
CCCCCCCCCCCCCC(=O)N[C@H](CO)[C@H](O)c1ccc([N+](=O)[O-])cc1 [Compound 4, D-NMAPPD] | 300 µM | – | do not affect NMT activity | unaffected | not reduced | > 300 | at most a minor reduction | 40%–80% | more rounded apoptotic cells | less induction of apoptosis | correspondingly lower depletion of S phase | effect on proliferation (nuclei counts) (MDA-MB-231 cells; 30 μM 4, 24, 48, 72 h): hindered proliferation equally at all time points; NMT inhibition (sortase A) [8]: no effect; IC50 (human NMT1; ref Kim et al., 2017, read-out: biochemical human NMT1 IC50): 78 µM; IC50 ([4]; ref Kim et al., 2017, read-out: IC50, capacity to reduce N-myristoylation in living cells): ~15 µM; increase of ceramide concentrations [11]: up to 12 fold; NMT inhibition (sortase A) ([6]; PC-3 cells, 100, 10 and 1 μM 4): no effect
O=C(/C=C/c1ccccc1)/C=C/c1ccccc1.O=C(/C=C/c1ccccc1)/C=C/c1ccccc1.O=C(/C=C/c1ccccc1)/C=C/c1ccccc1.[Pd].[Pd] [Compound 5, Tris (dibenzylideneacetone) di-palladium] | 10 µM | – | do not affect NMT activity | unaffected; also recorded: does not inhibit NMT in cells | – | 4.2 | at most a minor reduction | 40%–80% | exhibited this phenotype | less induction of apoptosis | correspondingly lower depletion of S phase | IC50 (MDA-MB-231 cells; time- and concentration-dependent, 24, 48, 72 h, read-out: IC50 of proliferation (nuclei counts)): ~0.3 µM; IC50 (human NMTs; ref Bhandarkar et al., 2008): 0.5 to 1.3 µM; NMT1 inhibition (claimed selectivity NMT1 vs NMT2) (human NMT1; ref Rampoldi et al., 2012): 0.5 µM; decrease in cell count (A375 melanoma): 96%; NMT2 inhibition (claimed selectivity NMT1 vs NMT2) (NMT2): 1.3 µM; precipitation in the media ([7]; cell culture media, black rod-shaped crystals): precipitated in the media; concentrations at which precipitation in growth media was most notable ([7]; growth media of multiple cell lines): over 1 μM; effect on metabolic activity (Jurkat cells): no effect; NMT inhibition (sortase A) and cytotoxicity ([6]; A375, NCI-H929 and PANC1 cells, 10, 1 and 0.1 μM 5): cytotoxic in the absence NMT inhibition
